# Assay results as given in patent US20050209278A1, “Piperidinyl- and piperazinyl-sulfonylmethyl hydroxamic acids and their use as protease inhibitors” (priority 2002, published 2005).
# pKi: −log10 of the molar value.
# Molecular target: T1, MMP-13 (Homo sapiens, UniProt P45452)
# T1 construct: made in house; host or cells: baculovirus / insect cells
# Experiment: In vitro MMP inhibition, Ki determination (fluorogenic substrate II)
# Type: biochemical
# Settings: value outside parentheses; read-out: MMP-13 Ki
# How it was run: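 Ki determined with human recombinant MMP-13, baculovirus-expressed as proenzyme and activated with APMA. Fluorogenic MCA/Dpa substrate II at 4 μM (at or below Km) with low enzyme in Tris buffer pH 7.5 with CaCl2. Incubation was 1 h at room temperature, with fluorescence read at 330/420 nm.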
row,Structure (SMILES),pKi
1,O=C(NO)C1(S(=O)(=O)N2CCC(c3ccc(-c4cccnc4)cn3)CC2)CCOCC1 [Example 390],8.17
2,O=C(NO)C1(S(=O)(=O)N2CCC(c3ccc(-c4ccccc4)cn3)CC2)CCOCC1 [Example 392],8.37
3,O=C(NO)C1(S(=O)(=O)N2CCC(c3ccc(-c4cccs4)cn3)CC2)CCOCC1 [Example 394],8.76
4,O=C(NO)C1(S(=O)(=O)N2CCC(c3ccc(-c4ccc(C(F)(F)F)cc4)cn3)CC2)CCOCC1 [Example 395],9.05
5,CCCCc1ccc(C2CCN(S(=O)(=O)C3(C(=O)NO)CCN(CC)CC3)CC2)nc1 [Example 396],8.66
